Source: US20070128217A1 (priority 2003, published 2007)

How the values were obtained:
[1] = system: antibodies in sera from SARS patients (sera 1a, 1b, 2, 6, 37, 62, London, SARS-yellow, SARS-green); type: binding, human; design: Binding of serum 6 to linear peptides of protein X1 of SARS-CoV Urbani / Binding of serum 37 to linear peptides of protein X1 of SARS-CoV Urbani / Binding of serum 6 to looped/cyclic peptide (PEPSCAN-ELISA) / Binding of serum 37 to looped/cyclic peptide (PEPSCAN-ELISA) / Binding of serum 37 to looped/cyclic peptides of protein X1 of SARS-CoV Urbani / Binding of serum 6 to linear peptides of protein X2 / Binding of serum 37 to linear peptides of protein X2 / Binding of serum 37 to looped/cyclic peptides of protein X2 of SARS-CoV Urbani / Binding of serum 6 to linear peptides of protein M of SARS-CoV Urbani / Binding of serum 37 to linear peptides of protein M of SARS-CoV Urbani / Binding of serum 6 to looped/cyclic peptides of protein M of SARS-CoV Urbani / Binding of serum 37 to looped/cyclic peptides of protein M of SARS-CoV Urbani / Binding of serum 6 to linear peptides of protein X3 of SARS-CoV Urbani / Binding of serum 37 to linear peptides of protein X3 of SARS-CoV Urbani / Binding of serum 37 to looped/cyclic peptides of protein X3 of SARS-CoV Urbani / Binding of serum 6 to linear peptides of protein X4 of SARS-CoV Urbani / Binding of serum 37 to linear peptides of protein X4 of SARS-CoV Urbani / Binding of serum 37 to looped/cyclic peptides of protein X4 of SARS-CoV Urbani / Binding of serum 6 to linear peptides of protein X5 of SARS-CoV Urbani / Binding of serum 37 to linear peptides of protein X5 of SARS-CoV Urbani / Binding of serum 37 to looped/cyclic peptides of protein X5 of SARS-CoV Urbani / Binding of serum 6 to linear peptides of protein N of SARS-CoV Urbani / Binding of serum 37 to linear peptides of protein N of SARS-CoV Urbani / Binding of serum 6 to linear peptide (PEPSCAN-ELISA) / Binding of serum 1a to looped/cyclic peptides of protein N of SARS-CoV Urbani / Binding of serum 1b to looped/cyclic peptides of protein N of SARS-CoV Urbani / Binding of serum 2 to looped/cyclic peptides of protein N of SARS-CoV Urbani / Binding of serum 6 to looped/cyclic peptides of protein N of SARS-CoV Urbani / Binding of serum 37 to looped/cyclic peptides of protein N of SARS-CoV Urbani / Binding of serum 62 to looped/cyclic peptides of protein N of SARS-CoV Urbani / Binding of serum London to looped/cyclic peptides of protein N of SARS-CoV Urbani / Binding of serum SARS-green to looped/cyclic peptides of protein N of SARS-CoV Urbani: unit not given here
[2] = system: control sera (pooled serum of ten healthy LUMC hospital workers; commercial negative donor pooled serum from the Dutch bloodbank); type: binding, human; design: Binding of Control serum LUMC to linear peptides / Binding of Control serum Blood-bank to linear peptides / Binding of Control serum LUMC to looped peptides / Binding of Control Serum Blood-Bank to Looped peptides / Binding of Control serum LUMC to linear peptides of the protein M of SARS-CoV Urbani / Binding of Control serum Blood-bank to linear peptides of the protein M of SARS-CoV Urbani / Binding of Control serum LUMC to looped peptides of the protein M of SARS-CoV Urbani / Binding of Control Serum Blood-Bank to Looped peptides of the protein M of SARS-CoV Urbani: unit not given here
[3] = system: rabbit serum obtained by immunizing a rabbit with the SARS-CoV strain Frankfurt 1; type: binding; design: Binding of a rabbit serum to linear peptides / Binding of a rabbit serum to looped peptides / Rabbit serum linear peptides / Rabbit serum looped peptides / Binding of a rabbit serum to linear peptides of protein N of SARS-CoV Urbani (Rabbit serum linear peptides) / Binding of a rabbit serum to looped/cyclic peptides of protein N of SARS-CoV Urbani (Rabbit serum looped peptides): unit not given here

## YRIGNYKLNTDHAGS
[1]
  Binding of serum 1a to linear peptides of protein M of SARS-CoV Urbani: 0.7
  Binding of serum 1a to looped/cyclic peptides of protein M of SARS-CoV Urbani: 0.8
  Binding of serum 1b to linear peptides of protein M of SARS-CoV Urbani: 0.6
  Binding of serum 1b to looped/cyclic peptides of protein M of SARS-CoV Urbani: 0.6
  Binding of serum 2 to linear peptides of protein M of SARS-CoV Urbani: 0.5
  Binding of serum 2 to looped/cyclic peptides of protein M of SARS-CoV Urbani: 0.5
  Binding of serum 6 to linear peptides of protein M of SARS-CoV Urbani: 0.2
  Binding of serum 6 to looped/cyclic peptides of protein M of SARS-CoV Urbani: 0.8
  Binding of serum 37 to linear peptides of protein M of SARS-CoV Urbani: 0.8
  Binding of serum 37 to looped/cyclic peptides of protein M of SARS-CoV Urbani: 0.7
  Binding of serum 62 to linear peptides of protein M of SARS-CoV Urbani: 0.7
  Binding of serum 62 to looped/cyclic peptides of protein M of SARS-CoV Urbani: 0.6
  Binding of serum London to linear peptides of protein M of SARS-CoV Urbani: 0.5
  Binding of serum London to looped/cyclic peptides of protein M of SARS-CoV Urbani: 0.4
  Binding of serum SARS-green to linear peptides of protein M of SARS-CoV Urbani: 0.2
  Binding of serum SARS-green to looped/cyclic peptides of protein M of SARS-CoV Urbani: 0.3
  Binding of serum SARS-yellow to linear peptides of protein M of SARS-CoV Urbani: 0.1
  Binding of serum SARS-yellow to looped/cyclic peptides of protein M of SARS-CoV Urbani: 0.6
[2]
  Binding of Control Serum Blood-Bank to Looped peptides of the protein M of SARS-CoV Urbani: 0.6
  Binding of Control serum Blood-bank to linear peptides of the protein M of SARS-CoV Urbani: 0.6
  Binding of Control serum LUMC to linear peptides of the protein M of SARS-CoV Urbani: 0.3
  Binding of Control serum LUMC to looped peptides of the protein M of SARS-CoV Urbani: 0.6
[3]
  Rabbit serum linear peptides: 0.6
  Rabbit serum looped peptides: 0.1

## YRINWVTGGIAIAMA
[1]
  Binding of serum 1a to linear peptides of protein M of SARS-CoV Urbani: 0.7
  Binding of serum 1a to looped/cyclic peptides of protein M of SARS-CoV Urbani: 0.6
  Binding of serum 1b to linear peptides of protein M of SARS-CoV Urbani: 0.6
  Binding of serum 1b to looped/cyclic peptides of protein M of SARS-CoV Urbani: 0.4
  Binding of serum 2 to linear peptides of protein M of SARS-CoV Urbani: 0.7
  Binding of serum 2 to looped/cyclic peptides of protein M of SARS-CoV Urbani: 0.6
  Binding of serum 6 to linear peptides of protein M of SARS-CoV Urbani: 0.3
  Binding of serum 6 to looped/cyclic peptides of protein M of SARS-CoV Urbani: 0.5
  Binding of serum 37 to linear peptides of protein M of SARS-CoV Urbani: 0.8
  Binding of serum 37 to looped/cyclic peptides of protein M of SARS-CoV Urbani: 0.5
  Binding of serum 62 to linear peptides of protein M of SARS-CoV Urbani: 0.8
  Binding of serum 62 to looped/cyclic peptides of protein M of SARS-CoV Urbani: 0.6
  Binding of serum London to linear peptides of protein M of SARS-CoV Urbani: 0.3
  Binding of serum London to looped/cyclic peptides of protein M of SARS-CoV Urbani: 0.2
  Binding of serum SARS-green to linear peptides of protein M of SARS-CoV Urbani: 0.3
  Binding of serum SARS-green to looped/cyclic peptides of protein M of SARS-CoV Urbani: 0.0
  Binding of serum SARS-yellow to linear peptides of protein M of SARS-CoV Urbani: 0.1
  Binding of serum SARS-yellow to looped/cyclic peptides of protein M of SARS-CoV Urbani: 0.8
[2]
  Binding of Control Serum Blood-Bank to Looped peptides of the protein M of SARS-CoV Urbani: 0.7
  Binding of Control serum Blood-bank to linear peptides of the protein M of SARS-CoV Urbani: 0.8
  Binding of Control serum LUMC to linear peptides of the protein M of SARS-CoV Urbani: 0.6
  Binding of Control serum LUMC to looped peptides of the protein M of SARS-CoV Urbani: 0.6
[3]
  Rabbit serum linear peptides: 0.4
  Rabbit serum looped peptides: 0.3

## YSHLLLVAAGMEAQF
[1]
  Binding of serum 1a to linear peptides of protein X1 of SARS-CoV Urbani: 0.7
  Binding of serum 1a to looped/cyclic peptide (PEPSCAN-ELISA): 0.4
  Binding of serum 1b to linear peptides of protein X1 of SARS-CoV Urbani: 0.6
  Binding of serum 1b to looped/cyclic peptide (PEPSCAN-ELISA): 0.4
  Binding of serum 2 to linear peptides of protein X1 of SARS-CoV Urbani: 0.5
  Binding of serum 2 to looped/cyclic peptide (PEPSCAN-ELISA): 0.5
  Binding of serum 6 to linear peptides of protein X1 of SARS-CoV Urbani: 0.5
  Binding of serum 6 to looped/cyclic peptide (PEPSCAN-ELISA): 0.3
  Binding of serum 37 to linear peptides of protein X1 of SARS-CoV Urbani: 0.6
  Binding of serum 37 to looped/cyclic peptide (PEPSCAN-ELISA): 0.7
  Binding of serum 62 to linear peptides of protein X1 of SARS-CoV Urbani: 0.7
  Binding of serum 62 to looped/cyclic peptide (PEPSCAN-ELISA): 0.5
  Binding of serum London to linear peptides of protein X1 of SARS-CoV Urbani: 0.3
  Binding of serum London to looped/cyclic peptide (PEPSCAN-ELISA): 0.3
  Binding of serum SARS-green to linear peptides of protein X1 of SARS-CoV Urbani: 0.3
  Binding of serum SARS-green to looped/cyclic peptide (PEPSCAN-ELISA): 0.5
  Binding of serum SARS-yellow to linear peptides of protein X1 of SARS-CoV Urbani: 0.4
  Binding of serum SARS-yellow to looped/cyclic peptide (PEPSCAN-ELISA): 0.3
[2]
  Binding of Control Serum Blood-Bank to Looped peptides: 0.4
  Binding of Control serum Blood-bank to linear peptides: 0.6
  Binding of Control serum LUMC to linear peptides: 0.5
  Binding of Control serum LUMC to looped peptides: 0.6
[3]
  Binding of a rabbit serum to linear peptides: 0.1
  Binding of a rabbit serum to looped peptides: 0.4

## YSNRNRFLYIIKLVF
[1]
  Binding of serum 1a to linear peptides of protein M of SARS-CoV Urbani: 0.7
  Binding of serum 1b to linear peptides of protein M of SARS-CoV Urbani: 0.5
  Binding of serum 2 to linear peptides of protein M of SARS-CoV Urbani: 0.6
  Binding of serum 6 to linear peptides of protein M of SARS-CoV Urbani: 0.3
  Binding of serum 37 to linear peptides of protein M of SARS-CoV Urbani: 0.7
  Binding of serum 62 to linear peptides of protein M of SARS-CoV Urbani: 0.7
  Binding of serum London to linear peptides of protein M of SARS-CoV Urbani: 0.3
  Binding of serum SARS-green to linear peptides of protein M of SARS-CoV Urbani: 0.3
  Binding of serum SARS-yellow to linear peptides of protein M of SARS-CoV Urbani: 0.1
  Recognition of the peptide by sera of SARS-CoV infected individuals, and form (linear, looped/cyclic) in which it is recognized: recognized in looped/cyclic form
[2]
  Binding of Control Serum Blood-Bank to Looped peptides of the protein M of SARS-CoV Urbani: 0.6
  Binding of Control serum Blood-bank to linear peptides of the protein M of SARS-CoV Urbani: 0.7
  Binding of Control serum LUMC to linear peptides of the protein M of SARS-CoV Urbani: 0.4
  Binding of Control serum LUMC to looped peptides of the protein M of SARS-CoV Urbani: 0.9
[3]
  Rabbit serum linear peptides: 0.4
  Rabbit serum looped peptides: 0.5
